Measured values published in patent US10221174B2, “N-(phenylsulfonyl)benzamides and related compounds as BCL-2 inhibitors” (THE REGENTS OF THE UNIVERSITY OF MICHIGAN, priority 2016, dated 2019).
Where two headings read alike, the source gives them in different places.

How the values were obtained:
Bcl-xL = Bcl-xL (Homo sapiens (Human), UniProt Q07817); assay: Fluorescence polarization competitive binding assay, Bcl-xL; conditions: FP competition, 10 nM Bcl-xL, 2 nM Flu-BAK probe; read-out: Inhibitory activity IC50 Bcl-xL
Protocol: (§1) Fluorescence polarization values were measured using the Infinite M-1000 plate reader (Tecan U.S., Research Triangle Park, N.C.) in Microfluor 1 96-well, black, round-bottom plates (Thermo Scientific). […] Plates were mixed and incubated at room temperature for 1 hour with gentle shaking to assure equilibrium. […] Equilibrium dissociation constants (Kd) were then calculated by fitting the sigmoidal dose-dependent FP increases as a function of protein concentrations using Graphpad Prism 5.0 software (Graphpad Software, San Diego, Calif.).
(§2) Mixtures of 5 μl of the tested inhibitors in DMSO and 120 μl of pre-incubated protein/probe complexes in the assay buffer were added into assay plates and incubated at room temperature for 2 hours with gentle shaking. […] FP values were measured as described above. IC50 values were determined by nonlinear regression fitting of the competition curves.

Bcl-2 = Bcl-2 (Homo sapiens (Human), UniProt P10415)
Protocol: as §1, §2

Molm13 cells = assay: Molm13 cell viability, CCK-8 assay; assay type: cell-based; conditions: Homo sapiens, MOLM-13, 96 h, CCK-8, 4 days, read-out: Molm13 IC50 (Bcl-2 dependent)
Protocol: Molm13 cells were obtained from Deutsche Sammlung von Mikroorganismen und Zellkulturen GmbH (DSMZ). They were used within three months of thawing fresh vials. Cells were maintained in the recommended culture medium with 10% FBS at 37° C. and an atmosphere of 5% CO2.
200 μL of a Molm13 cell suspension (10000 cells/well) in culture medium were seeded into 96-well plates and cultured overnight. Each tested compound was serially diluted in culture medium, and 20 μL of the compound dilution was added to the corresponding well of the cell plate. After the addition of the tested compound, the cells were incubated at 37° C. in an atmosphere of 5% CO2 for 4 days. […] The plates were read at 450 nm on the microplate spectrophotometer (Epoch2, BioTek). The readings were normalized to the vehicle cells, and the IC50 was calculated by nonlinear regression analysis using GraphPad Prism 5 software.

RS4;11 cells = assay: RS4;11 cell viability, CCK-8 assay; assay type: cell-based; conditions: Homo sapiens, RS4-11, 96 h, CCK-8, 4 days, read-out: RS4, 11 IC50 (Bcl-2 dependent)
Protocol: RS4;11 cells were obtained from American Type Culture Collection (ATCC). They were used within three months of thawing fresh vials. Cells were maintained in the recommended culture medium with 10% FBS at 37° C. and an atmosphere of 5% CO2.
The effect of representative Compounds of the Disclosure on cell viability was determined using Cell Counting Kit-8 (CCK-8) assay (Dojindo, Rockville, Md.) according to the manufacturer's instructions. 200 μL of a RS4;11 cell suspension (10000 cells/well) in culture medium were seeded into 96-well plates and cultured overnight. Each tested compound was serially diluted in culture medium, and 20 μL of the compound dilution was added to the corresponding well of the cell plate. After the addition of the tested compound, the cells were incubated at 37° C. in an atmosphere of 5% CO2 for 4 days. At the end of 4 days, 10 μL of CCK-8 solution was added to each well of the plate and incubated for 1-4 hours. The plates were read at 450 nm on the microplate spectrophotometer (Epoch2, BioTek). The readings were normalized to the vehicle cells, and the IC50 was calculated by nonlinear regression analysis using GraphPad Prism 5 software.

Pharmacokinetics in rats = assay type: in vivo
Protocol: The pharmacokinetics of ABT-199 and representative Compounds of the Disclosure were evaluated in rats at an IV dose of 2 mg/kg and an oral dose of 20 mg/kg.

Mcl-1 = Mcl-1 (Homo sapiens (Human), UniProt Q07820); assay: FP saturation binding of fluorescent probe to Mcl-1; conditions: 2 nM probe
Mcl-1, sequence (Q07820 whole entry): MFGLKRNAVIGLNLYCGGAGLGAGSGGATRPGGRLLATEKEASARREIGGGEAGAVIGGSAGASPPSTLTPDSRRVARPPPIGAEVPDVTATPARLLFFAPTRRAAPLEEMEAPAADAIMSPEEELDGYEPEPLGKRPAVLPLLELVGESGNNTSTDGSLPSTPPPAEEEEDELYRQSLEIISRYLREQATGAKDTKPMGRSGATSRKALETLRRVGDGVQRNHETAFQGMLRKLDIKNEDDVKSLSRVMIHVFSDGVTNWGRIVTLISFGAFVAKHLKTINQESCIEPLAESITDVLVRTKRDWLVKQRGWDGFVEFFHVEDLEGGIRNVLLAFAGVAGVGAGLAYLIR
Protocol: as §1

Bcl-2, sequence (P10415 whole entry): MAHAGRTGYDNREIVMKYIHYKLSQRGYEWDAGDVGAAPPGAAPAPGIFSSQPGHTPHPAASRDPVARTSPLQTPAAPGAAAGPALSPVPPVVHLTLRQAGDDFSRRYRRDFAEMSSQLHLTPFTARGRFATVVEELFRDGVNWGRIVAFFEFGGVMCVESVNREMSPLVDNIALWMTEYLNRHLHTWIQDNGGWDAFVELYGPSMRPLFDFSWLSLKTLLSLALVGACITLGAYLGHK
Bcl-xL, sequence (Q07817 whole entry): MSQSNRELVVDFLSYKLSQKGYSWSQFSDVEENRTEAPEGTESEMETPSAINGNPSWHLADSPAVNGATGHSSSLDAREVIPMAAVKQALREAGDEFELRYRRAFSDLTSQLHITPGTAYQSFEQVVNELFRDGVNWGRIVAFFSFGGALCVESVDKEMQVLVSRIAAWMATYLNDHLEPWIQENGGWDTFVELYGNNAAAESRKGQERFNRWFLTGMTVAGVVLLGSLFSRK

| Compound | IC50 (Bcl-xL) [nM] | IC50 (Bcl-2) [nM] | IC50 (Molm13 cells) [nM] | IC50 (RS4;11 cells) [nM] | also measured |
| --- | --- | --- | --- | --- | --- |
| O=C(NS(=O)(=O)c1ccc(NCC2CCOCC2)c([N+](=O)[O-])c1)c1ccc(N2CCN(CC3=C(c4ccc(Cl)cc4)CC4(CC3)COC4)CC2)cc1Oc1cnc2[nH]ccc2c1 [Cpd. No. 2, 2-((1H-pyrrolo[2,3-b]pyridin-5-yl)oxy)-4-(4-((6-(4-chlorophenyl)-2-oxaspiro[3.5]non-6-en-7-yl)methyl)piperazin-1-yl)-N-((3-nitro-4-(((tetrahydro-2H-pyran-4-yl)methyl)amino)phenyl)sulfonyl)benzamide] | 10.6 | 0.76 | 85 | 5.5 | – |
| O=C(NS(=O)(=O)c1ccc(NCC2CCOCC2)c([N+](=O)[O-])c1)c1ccc(N2CCN(CC3=C(c4ccc(Cl)cc4)CC4(CCC4)CC3)CC2)cc1Oc1cnc2[nH]ccc2c1 [Cpd. No. 3, 2-((1H-pyrrolo[2,3-b]pyridin-5-yl)oxy)-4-(4-((6-(4-chlorophenyl)spiro[3.5]non-6-en-7-yl)methyl)piperazin-1-yl)-N-((3-nitro-4-(((tetrahydro-2H-pyran-4-yl)methyl)amino)phenyl)sulfonyl)benzamide] | 13.7 | 1.2 | – | 26 | AUC0-∞ IV (Pharmacokinetics in rats; IV 2 mg/kg): 2683 n · gh/mL; AUC0-∞ PO (Pharmacokinetics in rats; oral 20 mg/kg): 7775 n · gh/mL; F(AUC0-t) (Pharmacokinetics in rats; oral 20 mg/kg vs IV 2 mg/kg): 29.0%; MRT inf (Pharmacokinetics in rats; rat, in vivo, IV 2 mg/kg): 2.37 h; AUC(0-t) (Pharmacokinetics in rats; rat, in vivo, IV 2 mg/kg, read-out: AUC0-t IV): 2660 ng·h/mL; clearance (Pharmacokinetics in rats; rat, in vivo, IV 2 mg/kg, read-out: CL (iv) (converted)): 12.8 mL/min/kg; Cmax (Pharmacokinetics in rats; rat, in vivo, IV 2 mg/kg, read-out: Cmax IV): 4200 ng/mL; Tmax (Pharmacokinetics in rats; rat, in vivo, IV 2 mg/kg, read-out: Tmax IV): 0.083 h; Vd (Pharmacokinetics in rats; rat, in vivo, IV 2 mg/kg, read-out: Vss (iv)): 1.86 L/kg; half-life (Pharmacokinetics in rats; rat, in vivo, IV 2 mg/kg, read-out: t1/2 IV (converted)): 4.94 h; AUC(0-t) (Pharmacokinetics in rats; rat, in vivo, oral 20 mg/kg, read-out: AUC0-t PO): 7630 ng·h/mL; Cmax (Pharmacokinetics in rats; rat, in vivo, oral 20 mg/kg, read-out: Cmax PO): 1320 ng/mL; Tmax (Pharmacokinetics in rats; rat, in vivo, oral 20 mg/kg, read-out: Tmax PO): 2 h; half-life (Pharmacokinetics in rats; rat, in vivo, oral 20 mg/kg, read-out: t1/2 PO (converted)): 4.46 h |
| O=C(NS(=O)(=O)c1cccc([N+](=O)[O-])c1)c1ccc(N2CCN(CC3=C(c4ccc(Cl)cc4)CC4(CCC4)CC3)CC2)cc1Oc1cnc2[nH]ccc2c1 [Cpd. No. 4, 2-((1H-pyrrolo[2,3-b]pyridin-5-yl)oxy)-4-(4-((6-(4-chlorophenyl)spiro[3.5]non-6-en-7-yl)methyl)piperazin-1-yl)-N-((3-nitrophenyl)sulfonyl)benzamide] | 8.6 | 3.1 | – | 427 | – |
| O=C(NS(=O)(=O)c1ccc(NC[C@@H]2COCCO2)c([N+](=O)[O-])c1)c1ccc(C2=CCN(CC3=C(c4ccc(Cl)cc4)CC4(CCC4)CC3)CC2)cc1Oc1cnc2[nH]ccc2c1 [compound 1, (R)-N-((4-(((1,4-dioxan-2-yl)methyl)amino)-3-nitrophenyl)sulfonyl)-2-((1H-pyrrolo[2,3-b]pyridin-5-yl)oxy)-4-(1-((6-(4-chlorophenyl)spiro[3.5]non-6-en-7-yl)methyl)-1,2,3,6-tetrahydropyridin-4-yl)benzamide] | – | – | 47 | 3 | – |
| CNc1ccc(S(=O)(=O)NC(=O)c2ccc(N3CCN(CC4=C(c5ccc(Cl)cc5)CC5(CCC5)CC4)CC3)cc2Oc2cnc3[nH]ccc3c2)cc1[N+](=O)[O-] [compound 10, 2-((1H-pyrrolo[2,3-b]pyridin-5-yl)oxy)-4-(4-((6-(4-chlorophenyl)spiro[3.5]non-6-en-7-yl)methyl)piperazin-1-yl)-N-((4-(methylamino)-3-nitrophenyl)sulfonyl)benzamide] | 14 | 3.3 | 182 | 32 | – |
| CN(C)c1ccc(S(=O)(=O)NC(=O)c2ccc(N3CCN(CC4=C(c5ccc(Cl)cc5)CC5(CCC5)CC4)CC3)cc2Oc2cnc3[nH]ccc3c2)cc1[N+](=O)[O-] [compound 11, 2-((1H-pyrrolo[2,3-b]pyridin-5-yl)oxy)-4-(4-((6-(4-chlorophenyl)spiro[3.5]non-6-en-7-yl)methyl)piperazin-1-yl)-N-((4-(dimethylamino)-3-nitrophenyl)sulfonyl)benzamide] | 77.8 | 11.9 | 1020 | 61 | – |
| O=C(NS(=O)(=O)c1ccc(NCC2CCOCC2)c([N+](=O)[O-])c1)c1ccc(C2CCN(CC3=C(c4ccc(Cl)cc4)CC4(CCC4)CC3)CC2)cc1Oc1cnc2[nH]ccc2c1 [compound 12, 2-((1H-pyrrolo[2,3-b]pyridin-5-yl)oxy)-4-(1-((6-(4-chlorophenyl)spiro[3.5]non-6-en-7-yl)methyl)piperidin-4-yl)-N-((3-nitro-4-(((tetrahydro-2H-pyran-4-yl)methyl)amino)phenyl)sulfonyl)benzamide] | – | 4.4 | 253 | 78 | – |
| CC(C)c1nc2cc(S(=O)(=O)NC(=O)c3ccc(N4CCN(CC5=C(c6ccc(Cl)cc6)CC6(CCC6)CC5)CC4)cc3Oc3cnc4[nH]ccc4c3)cc([N+](=O)[O-])c2[nH]1 [compound 58, 2-((1H-pyrrolo[2,3-b]pyridin-5-yl)oxy)-4-(4-((6-(4-chlorophenyl)spiro[3.5]non-6-en-7-yl)methyl)piperazin-1-yl)-N-((2-isopropyl-7-nitro-1H-benzo[d]imidazol-5-yl)sulfonyl)benzamide] | 19.2 | 3.8 | 250 | 35 | – |
| O=C(NS(=O)(=O)c1cc([N+](=O)[O-])c2[nH]c(C3CC3)nc2c1)c1ccc(N2CCN(CC3=C(c4ccc(Cl)cc4)CC4(CCC4)CC3)CC2)cc1Oc1cnc2[nH]ccc2c1 [compound 59, 2-((1H-pyrrolo[2,3-b]pyridin-5-yl)oxy)-4-(4-((6-(4-chlorophenyl)spiro[3.5]non-6-en-7-yl)methyl)piperazin-1-yl)-N-((2-cyclopropyl-7-nitro-1H-benzo[d]imidazol-5-yl)sulfonyl)benzamide] | 20.7 | 5 | 468 | 65 | – |
| O=C(NS(=O)(=O)c1cc([N+](=O)[O-])c2nn(CC3CCOCC3)cc2c1)c1ccc(N2CCN(CC3=C(c4ccc(Cl)cc4)CC4(CCC4)CC3)CC2)cc1Oc1cnc2[nH]ccc2c1 [compound 61, 2-((1H-pyrrolo[2,3-b]pyridin-5-yl)oxy)-4-(4-((6-(4-chlorophenyl)spiro[3.5]non-6-en-7-yl)methyl)piperazin-1-yl)-N-((7-nitro-2-((tetrahydro-2H-pyran-4-yl)methyl)-2H-indazol-5yl)sulfonyl)benzamide] | 13.1 | – | – | 43 | – |
| O=C(NS(=O)(=O)c1cc([N+](=O)[O-])c2cn(CC3CCOCC3)nc2c1)c1ccc(N2CCN(CC3=C(c4ccc(Cl)cc4)CC4(CCC4)CC3)CC2)cc1Oc1cnc2[nH]ccc2c1 [compound 63, 2-((1H-pyrrolo[2,3-b]pyridin-5-yl)oxy)-4-(4-((6-(4-chlorophenyl)spiro[3.5]non-6-en-7-yl)methyl)piperazin-1-yl)-N-((4-nitro-2-((tetrahydro-2H-pyran-4-yl)methyl)-2H-indazol-6-yl)sulfonyl)benzamide] | 7.1 | 1.3 | – | 55 | – |
| O=C(NS(=O)(=O)c1cc([N+](=O)[O-])c2cn(C3CCOCC3)nc2c1)c1ccc(N2CCN(CC3=C(c4ccc(Cl)cc4)CC4(CCC4)CC3)CC2)cc1Oc1cnc2[nH]ccc2c1 [compound 65, 2-((1H-pyrrolo[2,3-b]pyridin-5-yl)oxy)-4-(4-((6-(4-chlorophenyl)spiro[3.5]non-6-en-7-yl)methyl)piperazin-1-yl)-N-((4-nitro-2-(tetrahydro-2H-pyran-4-yl)-2H-indazol-6-yl)sulfonyl)benzamide] | 9.9 | 1.4 | – | 11 | – |
| Flu-BID: Fluorescein labeled BID (79-99) peptide, fluorescent probe in FP assay for Mcl-1 | – | – | – | – | Kd (Mcl-1): 6.9 ± 0.9 nM |
